Here are results for three molecules from article PMC10541198, “Specific quinone reductase 2 inhibitors reduce metabolic burden and reverse Alzheimer’s disease phenotype in mice” (The Journal of Clinical Investigation, 2023).

Data set [1] has as its system THLE-2 cells. In words: ATP depletion cell toxicity assay (CellTiter Glo), 72 h. It is filed as cell-based. The conditions noted are these: for cell viability, Cell-Titer-Glo (replicates): THLE2, 72 hour, in % (unit assumed); for LD50, cell viability (Cell-Titer-Glo): THLE2 cells, 72 hour incubation. The protocol:
(§1) H2DCFDA ROS assay was carried out according to established protocols, with some adjustment (Supplemental Methods) ([6]). Cell toxicity was measured via ATP depletion (CellTiter Glo, Promega) in THLE-2 cells (ATCC, CRL-2706), following 72 hours of exposure to the test compounds, and cell viability was assessed using XTT assay (Biological Industries) according to manufacturers protocols. CETSA was performed as previously described ([53]) with some modifications, using QR2 (Santa Cruz, sc-271665) and SOD1 (Santa Cruz, sc-17767) antibodies. SDS-PAGE and immunoblot imaging were carried out as previously described ([55]), using Tubulin (Sigma-Aldrich, SAB4500087), QR2 (Santa Cruz, sc-271665), NDUFA9 (AbCam, ab14713) and CD73 (Cell Signaling Technology, D7F9A) antibodies.
with a 100 µM as upper limit, for 72 h. […]
Cellular The rm a l Shift Assay (CETSA) […]
(§2) 17767). Analysis of the results wer e done in accordance to Jafari et a l .( 63) us i ng GraphPad Pr i sm software.

For data set [2], the target named is T1, QR2 expressed in HEK293T (Homo sapiens, UniProt P16083).
T1 construct: endogenous in cells; host or cells: HEK293T
T1 sequence (P16083 1-231): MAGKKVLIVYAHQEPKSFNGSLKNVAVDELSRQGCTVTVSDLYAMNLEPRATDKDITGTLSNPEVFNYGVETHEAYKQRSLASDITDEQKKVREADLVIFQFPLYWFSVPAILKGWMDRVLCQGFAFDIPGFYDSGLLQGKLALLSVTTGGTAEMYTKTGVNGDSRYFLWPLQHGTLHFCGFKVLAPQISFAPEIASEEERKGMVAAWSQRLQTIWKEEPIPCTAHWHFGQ
Briefly: Cellular thermal shift assay (CETSA; Tagg curves and ITDRF). It is filed as cell-based. Particulars: 73°C; for EC50: n = 3, read-out: EC50, isothermal dose-response of QR2 stabilization; for QR2 stabilization signal, ITDRF (replicates): log[Inhibitor]. The protocol: To establish direct target engagement and cell membrane permeability, a cellular thermal shift assay (CETSA) was carried out, using leading QR2is YB’s-537, 800, and 808. Following a 1 hour preincubation with 5 μM of the QR2is or vehicle, thermal aggregation curves (Taggs) of QR2 expressed in HEK293T were measured in increasing temperatures. All QR2is increased QR2 thermal stability compared with vehicle (Supplemental Figure 2A). Based on the Tagg curves we selected 73°C for isothermal dose-response fingerprint (IDTRF) experiments (Supplemental Figure 2B). The ITDRF allowed the relative quantification of the binding of each of the QR2is to QR2, measured as the EC50 (Figure 3A). […] We evaluated the safety of the QR2is using cell toxicity and viability assays. […] Cell viability was assessed by XTT assay in HEK239T cells, using a dose response, with 3- or 24-hour incubations of the leading QR2is. No sign of toxicity was seen (Figure 3C). Next, we wanted to assess if, similar to QR2 KO, QR2is can reduce cellular ROS in HCT116 cells and see whether any observable effect is occluded in QR2Δ cells. […] We then assessed WT HCT116 cells by immunoblot (Supplemental Figure 2, C and D), after being treated with YB-800 (2 μM) for 4 consecutive days.
as §1, with “D7F9A) antibodies. […]” for “D7F9A) antibodies.”
HEK293FT cells were cultured with penicillin- streptomycin antibiotics in Invitrogen DMEM (Thermo
Fisher Scientific) with 10% fetal bovine serum a nd L -glutamine, and grown to 80-90% confluence in 100
mm plates, while being passaged every 2–3 d. […]
Cellular The rm a l Shift Assay (CETSA)
The CETSA assay was performed as described(54) with some modifications. Bri efl y, HEK293T cel ls wer e
trypsinized (Biological Indust ri es), washed in PBS (Sigma-Aldrich) and then suspended in PBS containing
protease inhibitor cocktail (Roche). The suspended cells were then divided into two Eppendorf tubes and
were treated with either compound or DMSO (Sigma-Aldrich) for 1h at 37 °C with shaking. Following
treatment, each sample was divided into PCR tubes (100µL/tube) and subjected to a temperature gradient
(ranging fr om 63 to 80 °C) for 3 minutes. Cell lysates we r e obtained by 3- cycles of freeze- t ha w using li qui d
nitrogen and a thermal bl ock set to 25 °C. Samples were then centrifuged at 15,000rpm at 4 °C f or 20min a nd
were subsequently analyzed by Western Blot of QR2 (1:100, Santa Cruz; sc-271665). The isothermal
concentration response fingerprint (ITDRF) experiments were done using a constant temperature of 73 °C.
Band intensities were normalized to the highest concentration and SOD1 levels (1:200, Santa Cruz; sc -
as §2

“And” between values parts separate entries of the source, which are not always exact repeats. Equal entries are not always repeated. Some results are limits rather than exact numbers.

Take `Cc1ccc(-c2cn3cccc(C)c3n2)cc1S(=O)(=O)N1CCC(C)CC1` [YB-800]: the “cell viability, Cell-Titer-Glo (replicates)” value (“cell viability, Cell-Titer-Glo” for short) in data set [1] (inhibitor 3.9e-7 M) is 96.3 and 111.4; in data set [1] (inhibitor 7.8e-7 M), 111.0 and 92.8; in data set [1] (inhibitor 1.5625e-6 M), 96.0; in data set [1] (inhibitor 3.125e-6 M) it was 102.0 and 98.8; in data set [1] (inhibitor 6.25e-6 M) it was 95.3 and 97.2; in data set [1] (inhibitor 1.25e-5 M), 87.5 and 81.6. In addition, the “cell viability, Cell-Titer-Glo” value in data set [1] (inhibitor 2.5e-5 M) was 74.8 and 70.3; in data set [1] (inhibitor 5e-5 M), 54.4 and 53.1; in data set [1] (inhibitor 0.0001 M) it was 50.5 and 51.2. Further, the “LD50, cell viability (Cell-Titer-Glo)” value in data set [1] came out at 78.401 µM. The EC50 in data set [2] was 34 nM. The “QR2 stabilization signal, ITDRF (replicates)” value (shortened to “QR2 stabilization signal”) was 4070 and 3736 in data set [2] (M -5); 4506 and 4561 and 4867 in data set [2] (M -5.6); 4786 and 3969 and 5175 in data set [2] (M -5.9); 5056 and 3732 and 5224 in data set [2] (M -6.2); 4815 and 4201 and 4200 in data set [2] (M -6.5); 4651 and 3683 and 3564 in data set [2] (M -6.8). The “QR2 stabilization signal” value was 3508 and 2203 and 2700 in data set [2] (M -7.1); 2230 and 1871 and 2017 in data set [2] (M -7.4); 1054 and 942 and 1103 in data set [2] (M -7.7); 655 and 480 and 469 in data set [2] (M -8); 36 and 24 and 14 in data set [2] (M -9).
As to `Cc1ccc(-c2cn3cccc(C)c3n2)cc1S(=O)(=O)N1CCNCC1` [YB-537], the “cell viability, Cell-Titer-Glo” value is 89.3 and 104.9 and 105.3 in data set [1] (inhibitor 3.9e-7 M); 93.6 and 99.6 and 103.9 in data set [1] (inhibitor 7.8e-7 M); 96.4 and 109.9 and 90.1 in data set [1] (inhibitor 1.5625e-6 M); 92.2 and 96.1 and 103.0 in data set [1] (inhibitor 3.125e-6 M); 89.6 and 101.5 and 85.3 in data set [1] (inhibitor 6.25e-6 M); 95.7 and 97.8 and 93.2 in data set [1] (inhibitor 1.25e-5 M). In addition, the “cell viability, Cell-Titer-Glo” value in data set [1] (inhibitor 2.5e-5 M) was 93.9 and 92.0 and 88.2; in data set [1] (inhibitor 5e-5 M) it was 91.4 and 92.2; in data set [1] (inhibitor 0.0001 M), 81.5 and 82.7 and 80.4. The “LD50, cell viability (Cell-Titer-Glo)” value in data set [1] was above 100 µM. Further, in data set [2], the EC50 is 129 nM. The “QR2 stabilization signal” value in data set [2] (M -5) is 8037 and 7667; in data set [2] (M -5.6) it was 10469 and 7617 and 6857; in data set [2] (M -5.9) it was 10266 and 7463 and 6486; in data set [2] (M -6.2), 8878 and 6878 and 4582; in data set [2] (M -6.5) it was 6804 and 5633; in data set [2] (M -6.8) it was 3383 and 3296 and 2262. Moreover, the “QR2 stabilization signal” value in data set [2] (M -7.1) was 1653 and 1901 and 1028; in data set [2] (M -7.4) it was 762 and 749 and 458; in data set [2] (M -7.7), 410 and 416; in data set [2] (M -8), 212 and 226 and 182; in data set [2] (M -9), 110 and 98 and 105.
`Cc1ccc(-c2cn3cccc(C)c3n2)cc1S(=O)(=O)N1CCCC1` [YB-808]: the “cell viability, Cell-Titer-Glo” value in data set [1] (inhibitor 3.9e-7 M) is 96.4 and 99.1; in data set [1] (inhibitor 7.8e-7 M), 91.2 and 88.9; in data set [1] (inhibitor 1.5625e-6 M), 98.0 and 97.5; in data set [1] (inhibitor 3.125e-6 M), 92.2 and 93.9; in data set [1] (inhibitor 6.25e-6 M) it was 94.7 and 93.5; in data set [1] (inhibitor 1.25e-5 M), 90.2 and 79.5. For the same molecule, the “cell viability, Cell-Titer-Glo” value in data set [1] (inhibitor 2.5e-5 M) was 79.2 and 86.7; in data set [1] (inhibitor 5e-5 M), 66.4 and 67.9; in data set [1] (inhibitor 0.0001 M), 22.2 and 20.2. The “LD50, cell viability (Cell-Titer-Glo)” value in data set [1] was 59.704 µM. In addition, in data set [2], the EC50 came out at 13 nM. The “QR2 stabilization signal” value was 11691 and 8388 and 13855 in data set [2] (M -5); 12608 and 8899 and 18621 in data set [2] (M -5.6); 7977 and 16388 in data set [2] (M -5.9); 13431 and 8528 and 16152 in data set [2] (M -6.2); 13807 and 8233 and 15986 in data set [2] (M -6.5); 13304 and 17220 in data set [2] (M -6.8). For the same molecule, the “QR2 stabilization signal” value is 11995 and 8077 and 17779 in data set [2] (M -7.1); 9109 and 4692 and 13840 in data set [2] (M -7.4); 6837 and 3416 and 9444 in data set [2] (M -7.7); 2555 and 1788 and 4021 in data set [2] (M -8); 121 and 492 and 263 in data set [2] (M -9).
